Our source for the IC90 values is US20230141403A1 (Hoffmann-La Roche Inc., priority 2020, published 2023).

Each structure is given as a SMILES string. Counter-ions that a name gives are not always drawn.

The test system of the first assay is Acinetobacter baumannii ATCC17961. Put plainly: Antimicrobial susceptibility testing: 90% growth inhibitory concentration (IC90) determination. Particulars: Acinetobacter baumannii, ATCC17961, 16 h, 90% growth inhibitory concentration; Iso-Sensitest broth, optical density at 600 nm over 16h, 35±2° C.; read-out: AB ATCC 17961 IC90. The format is cell-based. As to the method: Antimicrobial Susceptibility Testing:
90% Growth Inhibitory Concentration (IC90) Determination
The in vitro antimicrobial activity of the compounds was determined according to the following procedure:
The assay used a 10-points Iso-Sensitest broth medium to measure quantitatively the in vitro activity of the compounds against Acinetobacter baumannii ATCC17961 or ATCC17978.
Stock compounds in DMSO were serially twofold diluted (e.g. range from 50 to 0.097 μM final concentration) in 384 wells microtiter plates and inoculated with 49 μl the bacterial suspension in Iso-Sensitest medium to have a final cell concentration of ˜5×10^(5) CFU/ml in a final volume/well of 50 ul/well. Microtiter plates were incubated at 35±2° C.
Bacterial cell growth was determined with the measurement of optical density at λ=600 nm each 20 minutes over a time course of 16h. Growth inhibition was calculated during the logarithmic growth of the bacterial cells with determination of the concentration inhibiting 50% (IC50) and 90% (IC90) of the growth.
Table 2 provides the 90% growth inhibitory concentrations (IC90) in micromoles per liter of the compounds of present invention obtained against the strain Acinetobacter baumannii ATCC17961.
For `COc1ccc(-c2cnc3c(Nc4ccc(N5CCC(CN)CC5)c(C)c4)nccn23)c(F)c1F` [Example 113, N-(4-(4-(aminomethyl)piperidin-1-yl)-3-methylphenyl)-3-(2,3-difluoro-4-methoxyphenyl) imidazo [1,2-a]pyrazin-8-amine hydrochloride], the IC90 (in general, the point of the concentration-response curve where the effect stands at 90%) amounted to 0.37 µM.
Take `COc1ccc(-c2cnc3c(Nc4ccc(S(C)(=O)=NCCCNC(=O)[C@@H]5C[C@@H](O)CN5)cc4)nccn23)c(F)c1F` (mixture of isomers) [Example 33, rac-(2R,4S)-N-(3-(((4-((3-(2,3-difluoro-4-methoxyphenyl)imidazo[1,2-a]pyrazin-8-yl)amino)phenyl) (methyl)(oxo)-16-sulfaneylidene)amino)propyl)-4-hydroxypyrrolidine-2-carboxamide dihydrochloride]: the IC90 came out at 0.49 µM.
Still for that read-out and setting: for `CN=S(C)(=O)c1ccc(Nc2nccn3c(-c4ccc(OC)c(F)c4F)cnc23)cc1Cl` (centres unmarked) [Example 23, N-[3-chloro-4-(N,S-dimethylsulfonimidoyl)phenyl]-3-(2,3-difluoro-4-methoxy-phenyl)imidazo[1,2-a]pyrazin-8-amine] the value was 0.11 µM.
Still for that read-out and setting: the value for `COc1ccc(-c2cnc3c(Nc4ccc([S@](C)(=O)=NCCCN)c(C)c4)nccn23)c(F)c1F` [Example 27, (−)-((3-aminopropyl)imino)(4-((3-(2,3-difluoro-4-methoxyphenyl)imidazo[1,2-a]pyrazin-8-yl)amino)-2-methylphenyl)(methyl)-l6-sulfanone] was 0.086 µM.
The same measure, in the same setting: for `CN=S(=O)(CCCN)c1ccc(Nc2nccn3c(-c4ccc(OC)c(F)c4F)cnc23)cc1C` (centres unmarked) [Example 72, N-(4-(3-amino-N-methylpropylsulfonimidoyl)-3-methylphenyl)-3-(2,3-difluoro-4-methoxyphenyl)imidazo[1,2-a]pyrazin-8-amine] the value was 0.12 µM; for `CCc1cc(Nc2nccn3c(-c4ccc(OC)c(F)c4F)cnc23)ccc1S(=O)(=O)N1CCN(C(=O)[C@@H]2CCCN2)CC1` [Example 105, (S)(4-(4-((3-(2,3-difluoro-4-methoyphenyl)imidazo[1,2-a]pyrazin-8-yl)amino)-2-ethylphenyl)sulfonyl)piperazin-1-yl)(pyrrolidin-2-yl)methanone hydrochloride], 0.31 µM.
With `COc1ccc(-c2cnc3c(Nc4ccc(NC(=O)CN5CCNCC5)c(C)c4)nccn23)cc1` [Example 37, N-(4-((3-(4-methoxyphenyl)imidazo[1,2-a]pyrazin-8-yl)amino)-2-methylphenyl)-2-(piperazin-1-yl)acetamide], the IC90 was found to be 0.21 µM.
The same measure, in the same setting: the value for `O=C1NCCN1c1ccc(Nc2nccn3c(-c4ccc(OC(F)F)cc4)cnc23)cc1` [Example 3, 1-[4-[[3-[4-(difluoromethoxy)phenyl]imidazo[1,2-a]pyrazin-8-yl]amino]phenyl]imidazolidin-2-one] was 0.72 µM.
The same measure, in the same setting: the value for `COc1ccc(-c2cnc3c(Nc4ccc(S(=O)(=O)NCCOCCN)c(C)c4)nccn23)c(F)c1F` [Example 100, N-(2-(2-aminoethoxy)ethyl)-4-((3-(2,3-difluoro-4-methoxyphenyl)imidazo[1,2-a]pyrazin-8-yl)amino)-2-methylbenzenesulfonamide hydrochloride] was 0.12 µM.

The same assay, now with this note: Acinetobacter baumannii, ATCC17961, 16 h, read-out: AB ATCC 17961 IC90 (uM).
On to `COc1ccc(-c2cnc3c(Nc4ccc(N5CCC(CN)CC5)cc4)nccn23)c(F)c1F` [Example 112, N-(4-(4-(aminomethyl)piperidin-1-yl)phenyl)-3-(2,3-difluoro-4-methoxyphenyl)imidazo[1,2-a]pyrazin-8-amine hydrochloride], for which the IC90 was 0.56 µM.
Same read-out and setting: the value for `COc1ccc(-c2cnc3c(Nc4ccc(S(C)(=O)=NCCCN)c(C)c4)nccn23)c(F)c1F` (centres unmarked) [Example 67, N-[4-[N-(3-aminopropyl)-S-methyl-sulfonimidoyl]-3-methyl-phenyl]-3-(2,3-difluoro-4-methoxy-phenyl)imidazo[1,2-a]pyrazin-8-amine; formic acid] was 0.12 µM.
